Test results: EP0594540B1, “Antiretroviral acyl compounds” (Novartis AG, priority 1992, dated 1994)

Assay: Blood concentration in mice after oral administration (reversed-phase HPLC)
Type: in vivo, Mäusen
Settings: oral gavage
Description: Die zu untersuchenden Verbindungen der Formel I oder als Kontrolle die Vergleichsverbindung der Formel II werden in Dimethylsulfoxid (DMSO) in einer Konzentration von 240 mg/ml gelöst. Die resultierenden Lösungen werden mit 20% (w/v) Hydroxypropyl-β-cyclodextrin (HPβCD) verdünnt, um eine Konzentration der Testsubstanz von 12 mg/ml zu erhalten. Diese Lösung wird Mäusen durch künstliche Sonderernährung in einer Dosis von 120 mg/kg verabreicht. 30, 60, 90 und 120 min nach der Verabreichung werden die Tiere getötet und Blut entnommen. Pro Zeitpunkt werden drei bis vier Tiere untersucht. Das Blut wird heparinisiert und für die Analyse durch eine der folgenden beiden Methoden vorbereitet: Nach der ersten Methode wird Vollblut deproteinisiert durch Mischen eines Volumenteils Blut mit einem Volumenteil Acetonitril; nach Zentrifugation wird der Überstand durch Reversed-Phase-HPLC untersucht. Nach der zweiten Methode wird ein interner Standard zum heparinisierten Blut in einer Endkonzentration von 4 µM zugegeben. Das Blut wird zentrifugiert. 0,25 ml Plasma werden abgenommen und mit einem gleichen Volumen Acetonitril deproteinisiert. Nach Zentrifugation wird der Überstand unter Vakuum eingetrocknet und der Rückstand in 20 µl 3M NaCl-Lösung und 100 µl 0,05M Phthalat-Puffer mit einem pH von 3,0 suspendiert. Die Suspension wird erst mit 1 ml, dann mit 0,2 ml Diisopropylether extrahiert. […]

## CC(=O)O[C@H](CN1C[C@H]2CCCC[C@H]2C[C@H]1C(=O)NC(C)(C)C)[C@H](Cc1ccccc1)NC(=O)[C@H](CC(N)=O)NC(=O)c1ccc2ccccc2n1 [N-tert.-Butyl-decahydro-2-[2(R)-acetyloxy-4-phenyl-3(S)-[[N-(2-chinolylcarbonyl)-L-asparaginyl]amino]butyl]-(4aS,8aS)-isochinolin-3(S)-carboxamid]
120 mg/kg, 30, 60, 90 and 120 min after dosing, compared with administration of the compound of formula II in unesterified form
  Konzentration der aktiven Komponente der Formel II im Blut: mehr als dreimal so hoch
120 mg/kg, compared with absorption of the compound of formula II
  Absorption der Verbindung der Formel I: mehr als viermal so hoch
